Test results reported in patent publication US9113629B2, “4-amino-6-(4-substituted-phenyl)-picolinates and 6-amino-2-(4-substituted-phenyl)-pyrimidine-4-carboxylates and their use as herbicides” (DOW AGROSCIENCES LLC, priority 2013, dated 2015).
Like-named read-outs stand apart in the source and are kept apart here.

Tests used:
[1] = system: Key Broadleaf Weed and Crop Species; assay: Post-emergent Test II herbicidal activity (Table 5); format: in vivo; settings: post-emergence, 336 h, post-emergent, 14 days after application; for pest or weed control at 70 g/ha: 70 g ai/ha; for pest or weed control at 140 g/ha: 140 g ai/ha
Method in brief: (§1)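 Injury was rated visually 14 d after treatment on a 0–100% scale against untreated controls. Test compounds, formulated with crop oil concentrate and surfactant and serially diluted down to 1/16× of the top rate, were applied by track sprayer at 187 L/ha onto first- to second-true-leaf seedlings.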

[2] = system: Key Grass and Sedge Weeds as well as Grass Crops; assay: Post-emergent Test II herbicidal activity (Table 6); format: in vivo; settings: post-emergence, 336 h; for pest or weed control at 70 g/ha: application rate 70 g ai/ha; for pest or weed control at 140 g/ha: application rate 140 g ai/ha
Method in brief: as §1

[3] = ABUTH: velvetleaf (Abutilon theophrasti), read-out: Visual Growth Reduction (%) 14 Days After Application ABUTH
[4] = AMARE: redroot pigweed (Amaranthus retroflexus), read-out: Visual Growth Reduction (%) 14 Days After Application AMARE
[5] = BRSNN: oilseed-rape, canola (Brassica napus), read-out: Visual Growth Reduction (%) 14 Days After Application BRSNN
[6] = CHEAL: lambsquarters (Chenopodium album), read-out: Visual Growth Reduction (%) 14 Days After Application CHEAL
[7] = EPHHL: wild poinsettia (Euphorbia heterophylla), read-out: Visual Growth Reduction (%) 14 Days After Application EPHHL
[8] = HELAN: sunflower (Helianthus annuus), read-out: Visual Growth Reduction (%) 14 Days After Application HELAN
[9] = VIOTR: wild pansy (Viola tricolor), read-out: Visual Growth Reduction (%) 14 Days After Application VIOTR
[10] = Triticum aestivum, TRZSS (wheat), read-out: Visual Growth Reduction (%) 14 Days After Application, TRZSS
[11] = CYPES: yellow nutsedge (Cyperus esculentus), read-out: Visual Growth Reduction (%) 14 Days After Application, CYPES
[12] = DIGSA: crabgrass (Digitaria sanguinalis), read-out: Visual Growth Reduction (%) 14 Days After Application, DIGSA
[13] = ECHCG: barnyardgrass (Echinochloa crus-galli), read-out: Visual Growth Reduction (%) 14 Days After Application, ECHCG
[14] = ORYSA: rice (Oryza sativa), read-out: Visual Growth Reduction (%) 14 Days After Application, ORYSA
[15] = SETFA: giant foxtail (Setaria faberi), read-out: Visual Growth Reduction (%) 14 Days After Application, SETFA
[16] = SORVU: grain sorghum (Sorghum vulgare), read-out: Visual Growth Reduction (%) 14 Days After Application, SORVU
[17] = ZEAMX: maize, corn (Zea mays), read-out: Visual Growth Reduction (%) 14 Days After Application, ZEAMX

Row | Compound | pest or weed control at 70 g/ha [1, 3] | pest or weed control at 140 g/ha [1, 3] | pest or weed control at 70 g/ha [1, 4] | pest or weed control at 140 g/ha [1, 4] | pest or weed control at 70 g/ha [1, 5] | pest or weed control at 140 g/ha [1, 5] | pest or weed control at 70 g/ha [1, 6] | pest or weed control at 140 g/ha [1, 6] | pest or weed control at 70 g/ha [1, 7] | pest or weed control at 140 g/ha [1, 7] | pest or weed control at 70 g/ha [1, 8] | pest or weed control at 140 g/ha [1, 8] | pest or weed control at 70 g/ha [1, 9] | pest or weed control at 140 g/ha [1, 9] | pest or weed control at 70 g/ha [2, 10] | pest or weed control at 140 g/ha [2, 10] | pest or weed control at 70 g/ha [2, 11] | pest or weed control at 140 g/ha [2, 11] | pest or weed control at 70 g/ha [2, 12] | pest or weed control at 140 g/ha [2, 12] | other results
1 | COc1c(N)nc(-c2cc(F)c(I)cc2F)nc1C(=O)O [Compound 119] | 75 to 84% | 85 to 94% | 85 to 94% | 95 to 100% | 95 to 100% | 95 to 100% | 95 to 100% | 95 to 100% | 95 to 100% | 95 to 100% | 85 to 94% | 85 to 94% | 0 to 29% | 0 to 29% | 45 to 59% | 60 to 74% | 45 to 59% | 45 to 59% | 45 to 59% | 60 to 74% | pest or weed control at 70 g/ha [2, 13]: 85 to 94%; pest or weed control at 140 g/ha [2, 13]: 85 to 94%; pest or weed control at 70 g/ha [2, 14]: 0 to 29%; pest or weed control at 140 g/ha [2, 14]: 0 to 29%; pest or weed control at 70 g/ha [2, 15]: 60 to 74%; pest or weed control at 140 g/ha [2, 15]: 60 to 74%; pest or weed control at 70 g/ha [2, 16]: 60 to 74%; pest or weed control at 140 g/ha [2, 16]: 60 to 74%; pest or weed control at 70 g/ha [2, 17]: 60 to 74%; pest or weed control at 140 g/ha [2, 17]: 60 to 74%
2 | Nc1cc(-c2ccc(I)cc2F)nc(C(=O)O)c1Cl [Compound 124] | 85 to 94% | 85 to 94% | 95 to 100% | 95 to 100% | 95 to 100% | 95 to 100% | 95 to 100% | 95 to 100% | 95 to 100% | 95 to 100% | 85 to 94% | 85 to 94% | 95 to 100% | 95 to 100% | 45 to 59% | 60 to 74% | 95 to 100% | 95 to 100% | 75 to 84% | 85 to 94% | pest or weed control at 70 g/ha [2, 13]: 85 to 94%; pest or weed control at 140 g/ha [2, 13]: 85 to 94%; pest or weed control at 70 g/ha [2, 14]: 30 to 44%; pest or weed control at 140 g/ha [2, 14]: 30 to 44%; pest or weed control at 70 g/ha [2, 15]: 60 to 74%; pest or weed control at 140 g/ha [2, 15]: 95 to 100%; pest or weed control at 70 g/ha [2, 16]: 95 to 100%; pest or weed control at 140 g/ha [2, 16]: 95 to 100%; pest or weed control at 70 g/ha [2, 17]: 75 to 84%; pest or weed control at 140 g/ha [2, 17]: 75 to 84%
3 | Nc1c(Cl)c(C(=O)O)nc(-c2ccc(Br)cc2)c1Cl [Compound 125] | 95 to 100% | 95 to 100% | 95 to 100% | 95 to 100% | 95 to 100% | 95 to 100% | 95 to 100% | 95 to 100% | 30 to 44% | 45 to 59% | 95 to 100% | 95 to 100% | 0 to 29% | 0 to 29% | 60 to 74% | 60 to 74% | 95 to 100% | 95 to 100% | 60 to 74% | 60 to 74% | pest or weed control at 70 g/ha [2, 14]: 0 to 29%; pest or weed control at 140 g/ha [2, 14]: 0 to 29%; pest or weed control at 70 g/ha [2, 15]: 85 to 94%; pest or weed control at 140 g/ha [2, 15]: 95 to 100%; pest or weed control at 70 g/ha [2, 16]: 60 to 74%; pest or weed control at 140 g/ha [2, 16]: 85 to 94%; pest or weed control at 70 g/ha [2, 17]: 60 to 74%; pest or weed control at 140 g/ha [2, 17]: 60 to 74%
